Legend:
[1] = Solubility as observed in the cholinesterase measurements; type: physicochemical; settings: did not allow measurements at higher concentrations
Excerpt: Tested compounds were active only toward BChE, and the results are presented in Table 2 and Figure 8 and Figure 9. Among stilbene derivatives, the best result is achieved by the derivative with a phenolic ring trans-8a and the thiophene derivative trans-1a (Table 2, Figure 9). […] Replacement of phenol from trans-8a with thiophene in trans-1a reduces the IC50 value by seven times. Replacing the methyl group from trans-1a with an isopropyl group in trans-2a (along with the inversion of the sulfur and nitrogen position) also reduces the activity. Furthermore, a change in geometry from trans-1a to cis-1a also diminished inhibitory activity, as was observed earlier.

[2] = molecular target: T1, BChE (EC 3.1.1.8, equine serum) (Equus caballus, UniProt P81908); assay: biochemical; type: biochemical; settings: for Inhibition (%) BChE: concentration for the maximal effect measured
T1 construct: BChE (EC 3.1.1.8, equine serum); purchased Sigma-Aldrich; host or cells: equine serum
T1 sequence (P81908 whole entry): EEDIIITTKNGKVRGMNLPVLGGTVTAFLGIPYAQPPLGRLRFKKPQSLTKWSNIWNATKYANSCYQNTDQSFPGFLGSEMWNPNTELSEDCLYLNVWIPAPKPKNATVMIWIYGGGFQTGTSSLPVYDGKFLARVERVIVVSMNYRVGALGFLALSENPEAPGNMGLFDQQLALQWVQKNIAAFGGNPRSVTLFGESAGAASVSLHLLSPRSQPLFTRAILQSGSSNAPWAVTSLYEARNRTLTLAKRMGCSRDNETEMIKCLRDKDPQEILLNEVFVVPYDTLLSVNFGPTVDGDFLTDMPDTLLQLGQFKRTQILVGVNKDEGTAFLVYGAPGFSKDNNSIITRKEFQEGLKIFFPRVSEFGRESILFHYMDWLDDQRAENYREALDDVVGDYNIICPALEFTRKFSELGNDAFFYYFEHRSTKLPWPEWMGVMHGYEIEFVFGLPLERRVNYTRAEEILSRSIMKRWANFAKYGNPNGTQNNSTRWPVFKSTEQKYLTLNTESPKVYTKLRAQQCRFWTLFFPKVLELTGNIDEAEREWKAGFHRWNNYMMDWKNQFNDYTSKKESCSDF
Method: (§1) AChE and BChE inhibition were determined using a modified spectrophotometric Ellman’s method. Acetylthiocholine iodide (ATChI), S-butyrylthiocholine iodide (BTChI), AChE (EC 3.1.1.7, Electrophorus electricus, Type: V-S), BChE (EC 3.1.1.8, equine serum), and Trisma base were purchased from Sigma-Aldrich (St. Louis, MO, USA), while Ellman’s reagent 5,50-dithiobis-(2-nitrobenzoic acid) (DTNB) was purchased from Zwijndrecht (Antwerpen, Belgium). The reaction mixture contained 180 µL Tris-HCl buffer (50 mM, pH 8.0) or phosphate buffer, 10 µL of the enzyme (final concentration 0.03 U/mL), 10 µL of the tested solution, and 10 μL of DTNB (final concentration 0.3 mM). The reaction started with adding 10 μL of ATChI/BTChI (final concentration of 0.5 mM). The developing yellow color was measured at 405 nm over 6 min at room temperature using a 96-well microplate reader (IRE 96, SFRI Medical Diagnostics, Bordeaux, France). The experiment was run in triplicate. The percentage of enzyme inhibition was calculated from measured data according to the equation: Inhibition (%) = [(Ac − AT)/A.C.]∙100, where A.C. is the enzyme activity without the test sample, and AT is the enzyme activity with the test sample, calculated as mean values ± standard deviation. In the control measurement, the tested compound was replaced by a buffer solution. Non-enzymatic hydrolysis was measured as blank for each measurement. The IC50 value was calculated by a nonlinear fit of compound concentration (log) values vs. response.

[3] = molecular target: T2, AChE (EC 3.1.1.7, Electrophorus electricus, Type: V-S) (Electrophorus electricus, UniProt O42275); assay: AChE inhibition, modified spectrophotometric Ellman's method; type: biochemical
T2 construct: purchased Sigma-Aldrich Type: V-S
T2 sequence (O42275 24-633): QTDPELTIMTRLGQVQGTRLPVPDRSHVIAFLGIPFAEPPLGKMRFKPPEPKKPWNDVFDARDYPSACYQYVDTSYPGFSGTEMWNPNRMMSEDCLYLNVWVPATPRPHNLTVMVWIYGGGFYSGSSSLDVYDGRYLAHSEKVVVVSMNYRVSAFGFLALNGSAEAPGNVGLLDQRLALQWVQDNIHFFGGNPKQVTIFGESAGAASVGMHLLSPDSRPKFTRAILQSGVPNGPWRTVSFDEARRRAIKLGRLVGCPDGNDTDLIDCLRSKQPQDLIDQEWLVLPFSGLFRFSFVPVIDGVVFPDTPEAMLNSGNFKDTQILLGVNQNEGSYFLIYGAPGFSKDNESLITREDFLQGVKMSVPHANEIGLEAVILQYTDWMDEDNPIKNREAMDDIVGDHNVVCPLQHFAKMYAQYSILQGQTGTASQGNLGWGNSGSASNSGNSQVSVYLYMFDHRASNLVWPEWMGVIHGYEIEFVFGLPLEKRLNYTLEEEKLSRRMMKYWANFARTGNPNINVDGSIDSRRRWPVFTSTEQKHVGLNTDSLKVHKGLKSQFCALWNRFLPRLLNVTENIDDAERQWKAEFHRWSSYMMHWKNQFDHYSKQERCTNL
Method: as §1, with “The experiment was run in triplicate.” left out, “In the control measurement, the tested compound was replaced by a buffer solution.” left out

**Q.** With Clc1nc(N2CCCC2)sc1/C=C/c1cccs1 [trans-10a, (E)-4-chloro-2-(pyrrolidin-1-yl)-5-(2-(thiophen-2-yl)vinyl)thiazole] as the molecule, how does the “solubility (in words)” value [1] read?
**A.** The value was “limited solubility”.

**Q.** And the inhibition at 100 µM ([2]; read-out: Inhibition (%) BChE)?
**A.** The inhibition at 100 µM was 25.3%.

**Q.** With Clc1ncc(/C=C/c2cccs2)s1 [trans-3a, (E)-2-chloro-5-(2-(thiophen-2-yl)vinyl)thiazole] as the molecule, how does the “inhibitory activity toward BChE (in words)” value [2] read?
**A.** The value was “ineffective inhibitors”.

**Q.** And the inhibition at 250 µM ([2]; read-out: Inhibition (%) BChE)?
**A.** The inhibition at 250 µM was 10%.

**Q.** With Cc1ccc2ccc3nc(C)oc3c2c1 [Compound 15] as the molecule, how does the IC50 [2] read?
**A.** The IC50 was 44.4 µM.

**Q.** And the inhibition at 368.6 µM ([2]; read-out: Inhibition (%) BChE)?
**A.** The inhibition at 368.6 µM was 98.3%.

**Q.** With FC(F)(F)c1nc2c(ccc3sccc32)s1 [Compound 4, 2-(trifluoromethyl)thieno[2′,3′:5,6]benzo[1,2-d]thiazole] as the molecule, how does the IC50 [2] read?
**A.** Its IC50 is 41.9 µM.

**Q.** What about the inhibition at 200 µM ([2]; read-out: Inhibition (%) BChE) of the same molecule?
**A.** The inhibition at 200 µM was 70.8%.

**Q.** For Cc1nc2ccc3ccc([N+](=O)[O-])cc3c2o1 [Compound 17], which inhibition at 159.5 µM ([2]; read-out: Inhibition (%) BChE) is on record?
**A.** Its inhibition at 159.5 µM is 16.8%.

**Q.** With CC(C)c1nc2ccc3sccc3c2s1 [Compound 2, 2-isopropylthieno[3′,2′:3,4]benzo[1,2-d]thiazole] as the molecule, how does the inhibition at 200 µM ([2]; read-out: Inhibition (%) BChE) read?
**A.** The inhibition at 200 µM was 46.8%.

**Q.** For CCC(C)Nc1ncc(/C=C/c2cccs2)s1 (stereo not drawn) [trans-9a, (E)-N-(sec-butyl)-5-(2-(thiophen-2-yl)vinyl)thiazol-2-amine], which “solubility (in words)” value [1] is on record?
**A.** Its value is “limited solubility”.

**Q.** And the inhibition at 100 µM ([2]; read-out: Inhibition (%) BChE)?
**A.** The inhibition at 100 µM was 47.7%.

**Q.** Which inhibition at 312.3 µM ([2]; read-out: Inhibition (%) BChE) does the source give for Clc1ccc2ccc3ocnc3c2c1 [Compound 21] here?
**A.** Its inhibition at 312.3 µM is 32.6%.

**Q.** Which “Inhibition (%) BChE” value ([2]; 250 μM) does the source give for “(E)-2-isopropyl-5-(2-(thiophen-2-yl)vinyl)thiazole [trans-2a]” here?
**A.** Its value is 45.8 (250) %.

**Q.** For COc1ccc2ccc3nc(C)oc3c2c1 [Compound 19], which IC50 [2] is on record?
**A.** The IC50 was 170 µM.

**Q.** What about the inhibition at 405.2 µM ([2]; read-out: Inhibition (%) BChE) of the same molecule?
**A.** Its inhibition at 405.2 µM is 81.9%.

**Q.** What does the source list for O=[N+]([O-])c1ccc2ccc3ncoc3c2c1 [Compound 16]?
**A.** IC50 [3]: 131 µM; inhibition at 201.7 µM ([3]; read-out: % of inhibition AChE): 63.8%; IC50 [2]: 137 µM; inhibition at 201.7 µM ([2]; read-out: Inhibition (%) BChE): 64.9%

**Q.** With “(Z)-2-methyl-5-(2-(thiophen-2-yl)vinyl)thiazole [cis-1a]” as the molecule, how does the “inhibitory activity toward BChE (in words)” value [2] read?
**A.** The value was “ineffective inhibitors”.

**Q.** And the “Inhibition (%) BChE” value ([2]; 500 μM)?
**A.** The value was 36.4 (500) %.

**Q.** What does the source list for Cc1ccc2ccc3ncoc3c2c1 [Compound 14]?
**A.** IC50 [2]: 155 µM; inhibition at 173.6 µM ([2]; read-out: Inhibition (%) BChE): 63.3%

**Q.** For Cc1nc2c(ccc3sccc32)s1 [Compound 1, 2-methylthieno[2′,3′:5,6]benzo[1,2-d]thiazole], which IC50 [2] is on record?
**A.** Its IC50 is 107 µM.

**Q.** And the inhibition at 500 µM ([2]; read-out: Inhibition (%) BChE)?
**A.** Its inhibition at 500 µM is 79.1%.

**Q.** Which inhibition at 188 µM ([2]; read-out: Inhibition (%) BChE) does the source give for c1ccc2c(c1)ccc1ncoc12 [Compound 11] here?
**A.** The inhibition at 188 µM was 0.9%.

**Q.** What does the source list for Clc1nc2c(ccc3sccc32)s1 [Compound 3, 2-chlorothieno[2′,3′:5,6]benzo[1,2-d]thiazole]?
**A.** IC50 [2]: 51.1 µM; inhibition at 250 µM ([2]; read-out: Inhibition (%) BChE): 75.4%

**Q.** Which results are given for CN(C)c1ccc2ccc3ocnc3c2c1 [Compound 20]?
**A.** IC50 [2]: 184 µM; inhibition at 364.2 µM ([2]; read-out: Inhibition (%) BChE): 82.2%

**Q.** With “(E)-2-(2-(2-methylthiazol-5-yl)vinyl)phenol [trans-8a]” as the molecule, how does the IC50 [2] read?
**A.** Its IC50 is 25.2 µM.

**Q.** What about the “Inhibition (%) BChE” value ([2]; 250 μM) of the same molecule?
**A.** The value was 80.5 (250) %.

**Q.** What does the source list for CC(=O)Nc1ncc(C=Cc2cccs2)s1 (mixture of isomers) [Compound 5a, N-(5-(2-(thiophen-2-yl)vinyl)thiazol-2-yl)acetamide]?
**A.** inhibitory activity toward BChE (in words) [2]: ineffective inhibitors; inhibition at 250 µM ([2]; read-out: Inhibition (%) BChE): 30.6%

**Q.** With “(Z)-2-isopropyl-5-(2-(thiophen-2-yl)vinyl)thiazole [cis-2a]” as the molecule, how does the “Inhibition (%) BChE” value ([2]; 250 μM) read?
**A.** Its value is 45.5 (250) %.

**Q.** Which inhibition at 273.6 µM ([2]; read-out: Inhibition (%) BChE) does the source give for COc1ccc2ccc3ncoc3c2c1 [Compound 18] here?
**A.** Its inhibition at 273.6 µM is 38%.

**Q.** With N#Cc1cccc2c1ccc1ncoc12 [Compound 12] as the molecule, how does the inhibition at 176 µM ([2]; read-out: Inhibition (%) BChE) read?
**A.** The inhibition at 176 µM was 40.9%.

**Q.** For CC(=O)Nc1nc2c(ccc3sccc32)s1 [Compound 5, N-(thieno[2′,3′:5,6]benzo[1,2-d]thiazol-2-yl)acetamide], which inhibition at 250 µM ([2]; read-out: Inhibition (%) BChE) is on record?
**A.** The inhibition at 250 µM was 24.9%.

**Q.** For Cc1cccc2c1ccc1ocnc12 [Compound 23], which inhibition at 297.5 µM ([2]; read-out: Inhibition (%) BChE) is on record?
**A.** Its inhibition at 297.5 µM is 20.6%.

**Q.** Which results are given for Fc1ccc2ccc3ocnc3c2c1 [Compound 22]?
**A.** IC50 [2]: 128 µM; inhibition at 315.8 µM ([2]; read-out: Inhibition (%) BChE): 69.9%

**Q.** Which IC50 [2] does the source give for “(E)-2-methyl-5-(2-(thiophen-2-yl)vinyl)thiazole [trans-1a]” here?
**A.** Its IC50 is 181 µM.

**Q.** What about the “Inhibition (%) BChE” value ([2]; 500 μM) of the same molecule?
**A.** The value was 64.0 (500) %.

**Q.** What does the source list for Cc1cccc2c1ccc1ncoc12 [Compound 13]?
**A.** IC50 [2]: 351 µM; inhibition at 396.8 µM ([2]; read-out: Inhibition (%) BChE): 57.8%

— article PMC10180155, “Thieno-Thiazolostilbenes, Thienobenzo-Thiazoles, and Naphtho-Oxazoles: Computational Study and Cholinesterase Inhibitory Activity” (Molecules, 2023)
